Type in all cases: biochemical
One test addresses T1, collagenase (MMP-1) (Homo sapiens, UniProt P03956).
T1 sequence (P03956 100-469): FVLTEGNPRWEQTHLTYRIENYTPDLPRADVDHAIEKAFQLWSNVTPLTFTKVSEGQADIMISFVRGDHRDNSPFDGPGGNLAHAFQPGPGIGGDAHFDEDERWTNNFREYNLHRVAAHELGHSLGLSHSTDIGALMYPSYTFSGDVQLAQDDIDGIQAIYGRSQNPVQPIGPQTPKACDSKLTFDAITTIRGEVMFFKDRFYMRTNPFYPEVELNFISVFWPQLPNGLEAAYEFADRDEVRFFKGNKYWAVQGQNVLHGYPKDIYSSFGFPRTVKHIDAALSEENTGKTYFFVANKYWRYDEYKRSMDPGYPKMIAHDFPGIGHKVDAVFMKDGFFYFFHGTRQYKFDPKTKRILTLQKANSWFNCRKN
The test can be described thus: MMP-1 enzyme inhibition assay (coumarin-labelled peptide substrate McaPLGLDpaAR). The note with it: read-out: MMP-1 IC50. The protocol: (§1) Stock solutions were made up as follows: Assay Butter: 100 mM Tris-HCl pH 7.6 is containing 100 mM NaCl, 10 mM CaCl2, and 0.05% Brij 35.
(§2) Substrate: 0.4 mM McaPLGLDpaAR (from Bachem) (0.437 mg/ml) stock solution in 100% DMSO (stored at −20° C.). Dilute to 8 μM in assay butter.
(§3) Enzyme: Recombinant human 92 kDa gelatinase (MMP-9; APMA (4-aminophenyl mercuric acetate)-activated if necessary) appropriately diluted in assay butter.
(§4) Test Compounds were prepared initially as 10 mM compound solution in 100% DMSO, diluted to 1 mM in 100% DMSO, then serially diluted 3-fold in 100% DMSO across columns 1-10 of a 96-well microtitre plate Assay concentration range, 100 μM (column 1) to 5.1 nM (column 10).
(§5) The assay was performed in a total volume of 100 μL per well in 96-well microfilm plates. Activated enzyme (20 μL) was added to the wells followed by 20 μL of assay butter. Appropriate concentrations of test compounds dissolved in 10 μL of DMSO were then added followed by 50 μL of McaPLGLDpaAR (8 μM, prepared by dilution of DMSO stock in assay butter). For each as say ten concentrations of test compound were examined in duplicate. Control wells lack either enzyme or test compound. The reactions were incubated at 37° C. for 2 hours. The fluorescence at 405 nm was measured immediately with an SLT Fluostar fluorometer (SL T Labinstruments GmbH, Grödig, Austria) using 320 nm excitation, without stopping the reaction.
(§6) The effect of the test compound was determined from the dose response curve generated by the 10 duplicate concentrations of inhibitor. The IC50 (the concentration of compound required to give a 50% decrease in enzyme activity) was obtained by fitting data to the equation, Y=a+((b−a)/(1+(c/X)^d)). (Y=inhibition achieved for a particular dose; X=the dose in nM; a=minimum y or zero % inhibition; b=maximum y or 100% inhibition; c=is the IC50; d=is the slope). The result was rounded to one significant figure.
Compounds of the invention were tested for inhibitory activity against collagenase (MMP-1) in an assay using a coumarin-labelled peptide substrate, (7-methoxycoumarin-4-yl)acetyl-Pro-Leu-Gly-Leu-(3-[2,4-dinitrophenyl]-L-2,3diaminopropionyl)-Ala-Arg-NH2 (Mca PLGLDpaAR) (Knight et al, 1992, above). The protocol for this assay was as described for the MMP-9 assay above.

In the next test the target is metalloelastase (MMP-12) (Homo sapiens, UniProt P39900). Put plainly: MMP-12 enzyme inhibition assay (coumarin-labelled peptide substrate McaPLGLDpaAR). The note with it: read-out: MMP-12 IC50. The protocol: as §1, §2, §3, §4, §5, §6
Compounds of the invention were tested for inhibitory activity against metalloelastase (MMP-12) in an assay using a coumarin-labelled peptide substrate, (7-methoxycoumarin-4-yl)acetyl-Pro-Leu-Gly-Leu-(3-[2,4-dinitrophenyl]-L-2,3-diaminopropionyl)-Ala-Arg-NH2 (McaPLGLDpaAR) (Knight et al, 1992, above). The protocol for this assay was as described for the MMP-9 assay above.

For the next test, the target named is T2, gelatinase A (MMP-2) (Homo sapiens, UniProt P08253).
T2 sequence (P08253 110-660): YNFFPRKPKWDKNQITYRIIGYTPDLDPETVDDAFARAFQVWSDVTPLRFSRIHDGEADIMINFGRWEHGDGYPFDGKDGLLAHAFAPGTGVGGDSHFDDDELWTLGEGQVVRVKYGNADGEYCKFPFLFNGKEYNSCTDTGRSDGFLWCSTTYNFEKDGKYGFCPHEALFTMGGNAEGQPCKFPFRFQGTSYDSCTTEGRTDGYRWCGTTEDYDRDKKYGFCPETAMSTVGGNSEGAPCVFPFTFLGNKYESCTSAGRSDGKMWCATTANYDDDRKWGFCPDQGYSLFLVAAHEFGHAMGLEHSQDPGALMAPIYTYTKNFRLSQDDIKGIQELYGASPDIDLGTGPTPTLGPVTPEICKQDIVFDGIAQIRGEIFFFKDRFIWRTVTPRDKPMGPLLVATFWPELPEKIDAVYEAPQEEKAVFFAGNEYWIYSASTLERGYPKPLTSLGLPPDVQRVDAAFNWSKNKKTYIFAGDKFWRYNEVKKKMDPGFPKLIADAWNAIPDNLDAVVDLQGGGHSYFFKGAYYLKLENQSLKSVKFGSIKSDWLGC
Put plainly: MMP-2 enzyme inhibition assay (coumarin-labelled peptide substrate McaPLGLDpaAR). The settings on record: read-out: MMP-2 IC50. On the procedure: as §1, §2, §3, §4, §5, §6
Compounds of the invention were tested for inhibitory activity against gelatinase A (MMP-2) in an assay using a coumarin-labelled peptide substrate, (7-methoxycoumarin-4-yl)acetyl-Pro-Leu-Gly-Leu-(3-[2,4-dinitrophenyl]-L-2,3diaminopropionyl)-Ala-Arg-NH2 (Mca PLGLDpaAR) (Knight et al, 1992, above). The protocol for this assay was as described for the MMP-9 assay above.

Test [1] concerns the target 92 kDa gelatinase (MMP-9) (Homo sapiens, UniProt P14780). Put plainly: MMP-9 enzyme inhibition assay (coumarin-labeled peptide substrate McaPLGLDpaAR). The settings on record: read-out: MMP-9 IC50. The protocol:
Compounds of the invention were tested for inhibitory activity against 92 kDa gelatinase (MMP-9) in an assay using a coumarin-labeled peptide substrate, (7-methoxycoumarin-4-yl)acetyl-Pro-Leu-Gly-Leu-(3-[2,4-dinitrophenyl]-L-2,3diaminopropionyl)-Ala-Arg-NH2 (McaPLGLDpaAR) (Knight et al, FEBS Lett. 1992; 263-266).
as §1, §2, §3, §4, §5, §6

Setting [2] is: Table 1, compounds of Formula (I).
Setting [3] is: Table 2, compounds of Formula (VI).

The structures appear in SMILES notation. Where two headings read alike, the source gives them in different places. Some results are limits rather than exact numbers.

Among the data in patent US8247437B2, “N-hydroxyamide derivatives and use thereof” (Merck Serono SA, priority 2004, dated 2012) are IC50 values, retold here.

Chain of metalloelastase (MMP-12) (P39900 106-470): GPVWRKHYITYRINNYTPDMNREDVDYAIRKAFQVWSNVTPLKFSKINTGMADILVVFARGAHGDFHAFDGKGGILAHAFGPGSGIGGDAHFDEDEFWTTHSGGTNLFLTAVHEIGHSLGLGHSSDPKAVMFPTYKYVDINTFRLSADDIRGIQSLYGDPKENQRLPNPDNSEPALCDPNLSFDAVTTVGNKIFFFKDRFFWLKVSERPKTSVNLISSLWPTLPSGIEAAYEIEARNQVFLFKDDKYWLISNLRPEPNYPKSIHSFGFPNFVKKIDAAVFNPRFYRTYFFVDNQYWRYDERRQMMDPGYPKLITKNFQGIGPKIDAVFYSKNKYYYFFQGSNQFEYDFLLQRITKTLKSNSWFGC
Chain of 92 kDa gelatinase (MMP-9) (P14780 107-707 limits assumed): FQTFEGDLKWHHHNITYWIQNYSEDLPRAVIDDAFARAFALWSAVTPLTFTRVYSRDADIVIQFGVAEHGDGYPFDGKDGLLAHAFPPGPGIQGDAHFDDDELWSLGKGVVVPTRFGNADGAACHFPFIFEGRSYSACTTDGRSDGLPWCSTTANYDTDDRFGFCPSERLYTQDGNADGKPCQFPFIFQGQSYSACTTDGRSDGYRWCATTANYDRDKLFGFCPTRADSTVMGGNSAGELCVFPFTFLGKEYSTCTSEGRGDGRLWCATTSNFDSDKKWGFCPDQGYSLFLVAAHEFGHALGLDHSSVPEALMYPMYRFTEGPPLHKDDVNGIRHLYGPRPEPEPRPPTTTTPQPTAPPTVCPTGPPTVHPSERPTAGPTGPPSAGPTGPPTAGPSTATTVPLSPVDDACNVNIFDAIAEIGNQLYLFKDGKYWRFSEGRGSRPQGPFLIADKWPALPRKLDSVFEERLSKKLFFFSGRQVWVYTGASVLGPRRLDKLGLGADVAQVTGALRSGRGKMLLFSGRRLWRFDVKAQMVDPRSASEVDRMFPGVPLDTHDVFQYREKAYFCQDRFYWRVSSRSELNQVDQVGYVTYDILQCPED

With `COc1ccc(N2CCN(C(=O)[C@@H](CC(C)C)[C@@H](O)C(=O)NO)CC2)cc1` [Example 14, (2R,3S)-N,2-dihydroxy-3-{[4-(4-methoxyphenyl)piperazin-1-yl]carbonyl}-5-methylhexanamide], the IC50 was over 5 µM on collagenase (MMP-1) (setting [2]), 4 nM at metalloelastase (MMP-12) (setting [2]), 89 nM on gelatinase A (MMP-2) (setting [2]) and 585 nM in test [1] (setting [2]).
The matching figures for `CC(C)C[C@H](C(=O)N1CCN(c2cc(C(F)(F)F)ccn2)C[C@H]1C)[C@H](O)C(=O)NO` [Example 3, (2S,3S)-N,2-dihydroxy-5-methyl-3-({(2R)-2-methyl-4-[4-(trifluoromethyl)pyridin-2-yl]piperazin-1-yl}carbonyl)hexanamide]: over 5 µM, 31 nM, 42 nM and 285 nM.
For `CC(C)C[C@H](C(=O)N1CCN(c2ccccn2)CC1)[C@H](O)C(=O)NO` [Example 1, (2S,3S)-N,2-dihydroxy-5-methyl-3-{[4-(2-pyridinyl)-1-piperazinyl]carbonyl}hexanamide] the same measures were 0.418 µM, 4 nM, 3 nM and 5 nM.
The matching figures for `O=C(NO)[C@H](O)[C@H](CCOCc1ccccc1)C(=O)N1CCN(c2ccc(-c3ccccc3)cc2)CC1` [Example 58, 3-[(4-biphenyl-4-ylpiperazin-1-yl)carbonyl]-3,4-dideoxy-1-(hydroxyamino)-5-O-(phenylmethyl)-L-threo-pentose]: over 5 µM, 7 nM, 38 nM and 194 nM.
`CCOc1ccc(CCC[C@@H](C(=O)N2CCC(Nc3ccc(O)cc3)CC2)[C@H](O)C(=O)NO)cc1` [Example 46, (2S,3R)-6-(4-ethoxyphenyl)-N,2-dihydroxy-3-({4-[(4-hydroxyphenyl)amino]piperidin-1-yl}carbonyl)hexanamide]: the 50% inhibitory concentration (IC50) is over 5 µM at collagenase (MMP-1) (setting [3]), 34 nM at metalloelastase (MMP-12) (setting [3]), 179 nM at gelatinase A (MMP-2) (setting [3]) and 133 nM in test [1] (setting [3]).
Consider `C[C@@H]1CN(c2ccc(OC(F)(F)F)cc2)CCN1C(=O)[C@@H](CC1CCCC1)[C@H](O)C(=O)NO` [Example 91, (2S,3S)-3-(cyclopentylmethyl)-N,2-dihydroxy-4-{(2R)-2-methyl-4-[4-(trifluoromethoxy)phenyl]piperazin-1-yl}-4-oxobutanamide], for which the IC50 at collagenase (MMP-1) (setting [2]) is 1.15 µM; on metalloelastase (MMP-12) (setting [2]) it was under 1 nM; on gelatinase A (MMP-2) (setting [2]), 3 nM; in test [1] (setting [2]) it was 49 nM.
Turning to `CCOc1ccc(CCCC(C(=O)N2CCN(c3ccccc3F)C[C@H]2C)[C@H](O)C(=O)NO)cc1` (mixture of isomers) [Example 9, (2S,3S)-6-(4-ethoxyphenyl)-3-{[(2R)-4-(2-fluorophenyl)-2-methylpiperazin-1-yl]carbonyl}-N,2-dihydroxyhexanamide], the IC50 was over 5 µM on collagenase (MMP-1) (setting [2]), 33 nM at metalloelastase (MMP-12) (setting [2]), 136 nM at gelatinase A (MMP-2) (setting [2]) and 233 nM in test [1] (setting [2]).
For `CC(C)C[C@H](C(=O)N1CCN(c2noc(-c3ccccc3)n2)CC1)[C@@H](O)C(=O)NO` [Example 56, (2R,3S)-N,2-dihydroxy-5-methyl-3-{[4-(5-phenyl-1,2,4-oxadiazol-3-yl)piperazin-1-yl]-carbonyl}hexanamide] the same measures were over 5 µM, 6 nM, 4.8 nM and 41 nM.
On to `CC(C)C[C@H](C(=O)N1CCN(c2nc(-c3ccccc3)ns2)CC1)[C@H](O)C(=O)NO` [Example 2, (2S,3S)-N,2-dihydroxy-5-methyl-3-{[4-(3-phenyl-1,2,4-thiadiazol-5-yl)-1-piperazinyl]carbonyl}hexanamide], for which the concentration for half-maximal inhibition (IC50) at collagenase (MMP-1) (setting [2]) was determined as 0.876 µM; at metalloelastase (MMP-12) (setting [2]) it was 103 nM; on gelatinase A (MMP-2) (setting [2]), 17 nM; in test [1] (setting [2]), 7 nM.
Consider `CCOc1ccc(CCC[C@@H](C(=O)N2CCC(Oc3ccccn3)CC2)[C@H](O)C(=O)NO)cc1` [Example 22], for which the IC50 at collagenase (MMP-1) (setting [3]) was over 5 µM; at metalloelastase (MMP-12) (setting [3]) it was 17 nM; on gelatinase A (MMP-2) (setting [3]) it was 47 nM; in test [1] (setting [3]), 45 nM.
